Experimental findings from patent publication US20110123988A1, “ANTISENSE COMPOUNDS AND METHODS FOR DIAGNOSTIC IMAGING” (GENESEEN LLC, priority 2003, published 2011) are described below.

The test system of this data set is cells expressing IGFR1 (murine BALB/c 3T3 cells; p6 cells overexpressing a transfected human IGFR1 gene; human Jurkat cells as negative control). Kind of data set: Cellular uptake of PNA-peptide conjugates by cells in vitro. Format: cell-based. The following applies: versus control PNA Gly-CCGCTTCCTTTC without peptide; measured with both the 14C-conjugate and the fluoresceinyl-conjugate; BALB/c 3T3, p6 and Jurkat cells. The text has this: To improve cellular uptake of an IGFR1 antisense sequence targeted against IGFR1 mRNA codons 706-709 (CCGCTTCCTTTC, SEQ ID NO:42; Ullrich et al., 1986, EMBO J. 5:10:2503-2512), a PNA with this base sequence was conjugated to a D-amino acid IGF1 peptide having the sequence (Gly)4D(Cys-Ser-Lys-Cys). This peptide binds selectively to the cell surface receptor for insulin-like growth factor 1 (IGFR1), which is overexpressed on malignant cells (Pietrzkowski et al., 1992, Mol. Cell. Biol. 12:9:3883-3889). The same PNA was also conjugated to a control peptide of the sequence (Gly)4D(Cys-Ala-Ala-Cys), which is not expected to bind to cells expressing IGFR1. The IGF1 D-peptide and control peptide was assembled on (4-methyl benzhydrypamine (MBHA) resin, and then the PNA was extended as a continuation of the peptide. The IGF1 peptide and control peptide sequences were radiolabeled with ^14C or fluorescently labeled with fluorescein isothiocyanate (Basu & Wickstrom, 1997, Bioconj. Chem. 8:4:481-488).

As to “Gly-CCGCTTCCTTTC-(Gly)4D(CysSerLysCys) (PNA, Gly, (Gly)4, D-peptide, 14C or fluorescein label, chemistry not fully specified) [labeled with 14C or fluorescein]”, the cellular uptake result was “much higher uptake than the control Gly-CCGCTTCCTTTC, but only in cells expressing IGFR1”.
